{
  "source": "patent US5593678A",
  "about": "“Protection of teleost fish” (University of Georgia Research Foundation, priority 1994, dated 1997)",
  "key": {"[1]": {"tested_on": "NCC from stressed fish (lysis of IM-9 target cells)", "conditions": "for Percent Specific Release (stressed fish): 100:1, control 0.9", "procedure": "(§1) A ^51 Cr release assay was used to determine cytotoxicity. Target cells at 1-2×10^6 cells/ml were labeled with 100 μCi of sodium chromate (Amersham, Arlington Heights, Ill.). NCC effector cells were treated as previously described [Evans et al. (1988) supra], centrifuged (500 g), and resuspended in media and added at different E:T ratios to the labeled target cells in round-bottomed 96-well microtiter plates. This mixture was incubated (25° C.) for 4-6 hours and 100 μl of each supernatant was removed to determine radioactivity (Beckman Biogamma II Counter; Beckman Instruments, Irvine, Calif.). The results are expressed as either percentage specific release (SR)=[(test release--spontaneous release)/(total release--spontaneous release)]×100; percent inhibition=[(percentage control SR--percentage test SR)/percentage control SR]×100; and percentage increase=(percentage test SR--percentage control SR)/percentage control SR.\nA common observation in fish exposed to stress, e.g., toxicants, drastic temperature changes, handling, etc., is the temporary loss of NCC activity."}, "[2]": {"tested_on": "IM-9 target cells", "procedure": "In further studies, NCC were treated with different concentrations of protein phosphatase inhibitors for two hours and labeled IM-9 target cells were added for a four-hour microcytotoxicity assay (Table 8). […] To determine if the activating effects of the protein phosphatase inhibitors were reversible, NCC were treated for 90 minutes with NaF and vanadate and then the inhibitors were removed prior to addition of the labeled target cells."}, "[3]": {"tested_on": "phosphotidylinositol phosphate phosphatase", "conditions": "cited from earlier work"}, "[4]": {"tested_on": "NCC (lysis of IM-9 target cells)", "conditions": "for Percentage of control (NCC cytotoxic activity): 120 minutes; for effect of removal of inhibitor on NCC activation (words): 90 minutes treatment, washed, E:T 40:1", "procedure": "FIG. 4. Individual and combined effects of phosphatase inhibitors on NCC cytotoxicity, NCC (7×10^5 cells) were incubated with either media (.diamond.), vanadate (Δ) (5 mM). NaF (.smallcircle.) (20 mM), or both vanadate and NaF (.quadrature.) for the indicated time periods before addition to labeled IM-9 target cells.\nFIG. 5. Effects of removal of Na3 VO4 on NCC activation. NCC were harvested, incubated for three hours, washed, counted and added to duplicate tubes containing either media alone or media containing 2.5, 5 and 10 mM vanadate. Following a 90 minutes incubation time, the cells were either washed and resuspended in media (closed circles) or added directly (open circles) to wells containing ^51 chromium labeled IM-9 target cells (E:T ratio 40:1).\nFIG. 6. Effects of removal of NaF on NCC activation. NCC were harvested, incubated for three hours in media, washed, counted and added to duplicate tubes containing media alone or in the presence of 5, 10 and 20 mM NaF. Following a 90 minutes treatment time, NCC were either washed (closed circles) or added directly (open circles) to wells containing labeled IM-9 target cells (E:t ratio 40:1).\nFIG. 7. Effects of Na3 VO4 on NCC with different levels of cytotoxicity. NCC were harvested from anterior kidneys of fish from three different sources. The cells were incubated in media for three hours, washed, counted and added to test tubes containing either media alone or media with 2.5, 5 and 10 mM vanadate. Following a two hours incubation time, the effectors were added to wells containing labeled IM-9 cells at a 40:1 E:T ratio.\nFIG. 8. Effects of NaF on NCC with different levels of cytotoxicity. NCC were harvested from anterior kidneys of fish from three different sources. The cells were incubated in media for three hours, washed, counted and added to media or media with 5, 10 and 20 mM NaF. Following a two-hour incubation, NCC were added to wells containing ^51 chromium labeled IM-9 target cells for a final E:T ratio of 40:1.\nas §1\nNCC were obtained as previously described [Graves et al. (1984) supra]; Evans et al. (1984) supra]. […] NCC were then washed and resuspended at 20×10^6 cells/ml, and 35 μl aliquots were added to test tubes containing 315 μl media only (media control) or media containing the indicated treatments. After 2 hr incubation, the cells were mixed with ^51 Cr-labeled IM-9 target cells and incubated for 4-6 hours ([…]). Supernatants were harvested and cytotoxicity levels were calculated as previously described.\nMembrane phosphorylation is maintained through a delicate equilibrium between cellular kinase and phosphatase activities.\nIn further studies, NCC were treated with different concentrations of protein phosphatase inhibitors for two hours and labeled IM-9 target cells were added for a four-hour microcytotoxicity assay (Table 8)."}, "[5]": {"tested_on": "CRC cells", "assay": "Lytic activity of CRC cells (rat leukemic NK cells)", "assay_type": "cell-based, rat (F344)", "source_text": "The present invention relates to the relevance of protein phosphatase inhibitors to the protection of other species and other types of natural killer cells. For example, the CRC cells (tissue cultured cells obtained from peripheral blood of leukemic F344 rats) are perhaps more interesting (e.g., another model to study the effects of vanadate on altering immunosuppressed NK function) because these are in vitro maintained rat leukemic NK cells which have spontaneously lost cytotoxicity against YAC-1 target cells. […] It is possible that the discovery of this activity of protein phosphatase inhibitors may have widespread importance for studies of mechanisms of signaling in all vertebrates. Additionally, these inhibitors may have clinical importance in circumstances of immunosuppression, immunodeficiency and other conditions of altered immune activity."}, "[6]": {"tested_on": "NCC", "conditions": "relatively high concentrations"}, "[7]": {"tested_on": "protein phosphatase", "conditions": "cited from earlier work"}, "[8]": {"tested_on": "human prostate gland phosphotyrosyl protein phosphatase", "conditions": "cited from earlier work"}, "[9]": {"tested_on": "calcineurin", "conditions": "cited from earlier work"}},
  "note": "Like-named read-outs stand apart in the source and are kept apart here.",
  "data": [
    {"smiles": "[Cl-].[Li+]", "note": "[Lithium chloride, lithium chloride]", "values": [
      {"measurement": "effect on cytotoxicity, stressed fish", "setting": "[1]", "result": "no effects on cytotoxicity"},
      {"measurement": "toxicity to labeled IM-9 targets", "setting": "[2]", "result": "not toxic"},
      {"measurement": "phosphotidylinositol phosphate phosphatase activity", "setting": "[3]", "result": "specifically inhibited"}
    ]},
    {"smiles": "[F-].[Na+]", "note": "[Sodium fluoride, sodium fluoride]", "values": [
      {"measurement": "cytotoxicity in presence of inhibitor, normal NCC", "setting": "[4]", "result": "significant increased cytotoxicity"},
      {"measurement": "effect on NCC cytotoxicity", "setting": "[4]", "result": "activated the cytotoxicity of NCC"},
      {"measurement": "Percentage of control (NCC cytotoxic activity)", "setting": "[4]; 5 mM, E:T 25:1", "result": 210.3, "unit": "%"},
      {"measurement": "Percentage of control (NCC cytotoxic activity)", "setting": "[4]; 5 mM, E:T 50:1", "result": 136.9, "unit": "%"},
      {"measurement": "Percentage of control (NCC cytotoxic activity)", "setting": "[4]; 5 mM, E:T 100:1", "result": 123.2, "unit": "%"},
      {"measurement": "Percent Specific Release", "setting": "[4]; 5 mM, E:T 10, media 39", "result": 48, "unit": "%"},
      {"measurement": "Percent Specific Release", "setting": "[4]; 5 mM, E:T 25, media 4", "result": 9, "unit": "%"},
      {"measurement": "Percent Specific Release", "setting": "[4]; 5 mM, E:T 50, media 21", "result": 29, "unit": "%"},
      {"measurement": "Percentage of control (NCC cytotoxic activity)", "setting": "[4]; 10 mM, E:T 25:1", "result": 333.3, "unit": "%"},
      {"measurement": "Percentage of control (NCC cytotoxic activity)", "setting": "[4]; 10 mM, E:T 50:1", "result": 183.9, "unit": "%"},
      {"measurement": "Percentage of control (NCC cytotoxic activity)", "setting": "[4]; 10 mM, E:T 100:1", "result": 153.7, "unit": "%"},
      {"measurement": "Percent Specific Release", "setting": "[4]; 10 mM, E:T 10, media 39", "result": 60, "unit": "%"},
      {"measurement": "Percent Specific Release", "setting": "[4]; 10 mM, E:T 25, media 4", "result": 14, "unit": "%"},
      {"measurement": "Percent Specific Release", "setting": "[4]; 10 mM, E:T 50, media 21", "result": 39, "unit": "%"},
      {"measurement": "Percentage of control (NCC cytotoxic activity)", "setting": "[4]; 20 mM, E:T 25:1", "result": 635.3, "unit": "%"},
      {"measurement": "Percentage of control (NCC cytotoxic activity)", "setting": "[4]; 20 mM, E:T 100:1", "result": 157.3, "unit": "%"},
      {"measurement": "Percent Specific Release", "setting": "[4]; 20 mM, E:T 10, media 39", "result": 61, "unit": "%"},
      {"measurement": "Percent Specific Release", "setting": "[4]; 20 mM, E:T 25, media 4", "result": 28, "unit": "%"},
      {"measurement": "Percent Specific Release", "setting": "[4]; 20 mM, E:T 50, media 21", "result": 49, "unit": "%"},
      {"measurement": "effect of removal of inhibitor on NCC activation (words)", "setting": "[4]; listed as NaF", "result": "almost completely obliterated activation"},
      {"measurement": "effect of removal of inhibitor on NCC activation (words)", "setting": "[4]; listed as fluoride", "result": "almost completely obliterated NCC activation"},
      {"measurement": "effect of removal of inhibitor on NCC activation (words)", "setting": "[4]; listed as sodium fluoride", "result": "lost"},
      {"measurement": "Percent Specific Release (stressed fish)", "setting": "[1]; NaF 5 mM", "result": 1.4, "unit": "%"},
      {"measurement": "Percent Specific Release (stressed fish)", "setting": "[1]; NaF 10 mM", "result": 4.4, "unit": "%"},
      {"measurement": "Percent Specific Release (stressed fish)", "setting": "[1]; NaF 20 mM", "result": 22.0, "unit": "%"},
      {"measurement": "toxicity to labeled IM-9 targets", "setting": "[2]; 20 mM", "result": "not toxic"},
      {"measurement": "increase in the lytic activity of CRC cells", "setting": "[5]", "result": "3 -fold"},
      {"measurement": "toxicity to NCC", "setting": "[6]", "result": "not toxic to NCC"},
      {"measurement": "protein phosphatase activity", "setting": "[7]", "result": "vanadate but not fluoride inhibited protein phosphatase activity"},
      {"measurement": "human prostate gland phosphotyrosyl protein phosphatase", "setting": "[8]", "result": "fluoride, but not vanadate inhibited human prostate gland phosphotyrosyl protein phosphatase"},
      {"measurement": "calcineurin-mediated dephosphorylation", "setting": "[9]", "result": "fluoride, but not vanadate inhibited"}
    ]}
  ]
}
